Series [1] in a line: Intrinsic clearance in liver microsomes. In kind it is in vitro ADME, rat. The note with it: for Rat CLhep, % Hepatic blood flow: rat liver microsomes; for CLhep predicted at 1 μM: rat, liver microsomes, pH 7.4, rat liver microsomes, read-out: Rat CLhep (in vitro hepatic clearance from microsomal CLint). As to the method:
(§1) The in vitro intrinsic clearance (CLint) was investigated in commercially obtained hepatic microsomes from mouse, rat, and human donors using the substrate depletion (i.e., loss-of-parent vs time, or half-life (t 1/2) method) approach with analyte detection via liquid chromatography–tandem mass spectrometry (LC-MS/MS). For each species, mean %parent remaining values at each time point were calculated from replicate raw data (analyte:IS peak area ratios) and used to determine in vitro t 1/2 and CLint.
(§2) Experiments were carried out by using a robot-assisted liquid handler (Bravo with BenchCell, Agilent). The compound was incubated (1 μM final concentration) in buffer (100 mM potassium phosphate pH 7.4 with 3 mM MgCl2) containing hepatic microsomes (0.5 mg/mL final concentration) from each species, discretely, at 37 °C under constant orbital shaking. After 5 min (preincubation), reactions were initiated by the addition of nicotinamide adenine dinucleotide phosphate (NADPH, 1 mM final concentration). At selected time intervals (0, 3, 7, 15, 25, and 45 min) postaddition of NADPH, aliquots (50 μL) were taken and placed into a 96-shallow-well plate containing ice-cold acetonitrile (150 μL) with carbamazepine (IS, 50 nM). The plates were then centrifuged (3000 rcf at 4 °C) for 10 min. The supernatants were transferred to a new 96-shallow-well daughter plate and diluted (1:1 v/v) with water (Milli-Q filtered). The plates were then sealed for preparation for LC-MS/MS analysis (see below).
(§3) Analyte:IS peak area ratios generated by LC-MS/MS were used to construct natural log-transformed %parent remaining vs time plots (using t = 0 min post-NADPH addition sample data as the starting point set to 100%). In vitro compound t 1/2 values were calculated by using the following equation: t1/2=ln(2)/k where k is the slope from the linear regression analysis of the natural log-transformed data (using means from all replicates at each time point). Resulting t 1/2 values were then used to calculate hepatic CLint values according to the following equation and with the use of species-specific scale-up factors for liver weight (grams) per total body weight (kg): CLint=0.693/invitrot1/2×1mLincubation/0.5mgmicrosomes×45mgmicrosomes/1gramliver×garamliver/kgbodywt
(§4) ^aScale-up factors used are 45 (rat) and 20 (human).
(§5) Predicted hepatic clearance (CLhep) was calculated by using the following equation: CLhep=Qh×CLint/Qh+CLint
(§6) Q h represents hepatic blood flow (mL/min/kg): 21 for humans, 70 for rats, and 90 for mouse.

The nature of series [2]: Intrinsic clearance in liver microsomes. It is filed as in vitro ADME, mouse. Particulars: for Mouse CLhep, % Hepatic blood flow: mouse liver microsomes; for CLhep predicted at 1 μM: mouse, liver microsomes, pH 7.4, mouse liver microsomes, read-out: Mouse CLhep (in vitro hepatic clearance from microsomal CLint). As to the method: as §1, §2, §3, §4, §5, §6
A short description of series [3]: In vivo IV pharmacokinetics, rat cassette. Particulars: Sprague-Dawley, plasma, 0.2 mg/kg, male SD rats, 0.2 mpk IV; for Vd: read-out: Vss; for clearance: read-out: rat in vivo CLp. As to the method:
In-life phase–Compounds were formulated in 12% ethanol, 48% PEG400, and 40% DMSO (v/v/v) at a concentration of 1 mg/mL and administered as a single 0.2 mg/kg IV dose (1 mL/kg) to male, Sprague–Dawley rats (n = 1; 342 g body weight) via injection into a surgically implanted jugular vein catheter. Blood samples were collected serially from a surgically implanted carotid artery catheter in each animal over multiple postadministration time points (0.033, 0.117, 0.25, 0.5, 1, 2, 4, 7, and 24 h) into chilled, K2EDTA anticoagulant-fortified tubes and immediately placed on wet ice. The blood samples were then centrifuged (1700 rcf, 5 min, 4 °C) in order to obtain plasma samples, which were stored at −80 °C until analysis by LC-MS/MS. VU6032735 was also dosed IV in C57Bl6 mice at 5 mg/kg IV to determine mouse PK. Formulation and experimental design were identical to those used for rats except that whole blood was used for analysis.
Plasma samples from the in-life phase of the study were thawed at ambient temperature (benchtop), and then, aliquots (20 μL per sample) were transferred to a 96-shallow-well (V-bottom) plate. Matrix-matched quality control (QC) samples and a standard curve of the compound (1 mg/mL DMSO stock solution) were prepared in blank rat plasma (K2EDTA-treated) via serial dilution and transferred (20 μL each) to the plate along with multiple blank plasma and tissue homogenate samples. Acetonitrile (120 μL) containing IS (10 nM carbamazepine) was added to each well of the plate to precipitate the protein. The plate was then centrifuged (4000 rcf, 5 min, ambient temperature), and the resulting supernatants (60 μL each) were transferred to a new 96-shallow-well (V-bottom) plate containing an equal volume (60 μL per well) of water (Milli-Q purified). The plate was then sealed for LC-MS/MS analysis.
Samples were analyzed via electrospray ionization (ESI) LC-MS/MS on an AB Sciex 4500 (Foster City, CA) triple-quadrupole instrument that was coupled with an Agilent 1290 Infinity Binary Pump and multisampler (Santa Clara, CA) and concentrations (ng/mL or ng/g) were determined using a matrix-matched 10-point standard curve and then converted to nM concentrations. Quantitation of compounds was performed via AB Sciex Multiquant software using the raw analyte:IS peak area ratios. The typical detection range was 0.5 ng/mL to ≥5000 ng/mL utilizing a quadratic equation regression with 1/x² weighting. Correction for dilution of all tissue samples was performed postquantitation. The corrections for dilution in the extraction buffer employed correction factors specific to each tissue weight.

Read-outs that look alike come from different tables or passages of the source.

On to `O=C(c1ccc(OCc2ccc(OC(F)(F)F)cc2)cc1)N1CCN(c2ccc(C(F)(F)F)cn2)CC1` [VU6032735], for which, in series [1], the “Rat CLhep, % Hepatic blood flow” value amounted to 23% and the CLhep predicted at 1 μM was 16.2 mL/min/kg. In addition, in series [2], the “Mouse CLhep, % Hepatic blood flow” value is listed as 56% and the CLhep predicted at 1 μM was 50.1 mL/min/kg. Moreover, in series [3], the AUC (commonly the area under the concentration-time curve, a measure of exposure) was 114 ng·h/mL; the MRT (usually a mean duration of stay, worked out from the concentration-time curve) worked out at 2.66 h; the half-life (as a rule, the time needed for the level to fall by half in the phase considered) is 2.19 h; the Vd was 4.69 L/kg. In addition, the clearance in series [3] was determined as 29.3 mL/min/kg.

Consider `Cc1cc(Cl)cc2sc(O[C@H]3CCN(C(=O)CCCS(=O)(=O)c4cccc(Br)c4)C[C@H]3F)nc12` [VU6047606], for which, in series [1], the “Rat CLhep, % Hepatic blood flow” value worked out at 71% and the CLhep predicted at 1 μM was above 46 mL/min/kg. In addition, in series [2], the “Mouse CLhep, % Hepatic blood flow” value is listed as 93% and the CLhep predicted at 1 μM is above 60 mL/min/kg. In addition, in series [3], the exposure (AUC) was 83.1 ng·h/mL, the mean residence time (MRT) worked out at 2.09 h, the half-life is 1.96 h and the Vd was 5.03 L/kg. Further, in series [3], the clearance was found to be 40.1 mL/min/kg.

`Cc1cc(Cl)cc2sc(O[C@@H]3CCN(C(=O)CCCS(=O)(=O)c4cccc(Br)c4)C[C@H]3F)nc12` [VU6047607]: in series [1], the “Rat CLhep, % Hepatic blood flow” value turned out to be 76% and the CLhep predicted at 1 μM is 53.5 mL/min/kg. Also, in series [2], the “Mouse CLhep, % Hepatic blood flow” value is on record as 98% and the CLhep predicted at 1 μM was 88.1 mL/min/kg. Moreover, in series [3], the AUC came out at 47 ng·h/mL, the mean residence time (MRT) came to 1.58 h, the half-life was 1.8 h and the Vd stood at 6.75 L/kg. Besides, the clearance in series [3] is 71 mL/min/kg.

On to `Cc1cc(Cl)cc2sc(O[C@@H]3CCN(C(=O)CCCS(=O)(=O)c4cccc(Br)c4)C[C@@H]3F)nc12` [VU6047608], for which, in series [1], the “Rat CLhep, % Hepatic blood flow” value was determined as 72% and the CLhep predicted at 1 μM is 50.5 mL/min/kg. Moreover, in series [2], the “Mouse CLhep, % Hepatic blood flow” value is 95% and the CLhep predicted at 1 μM is 85.9 mL/min/kg. Moreover, in series [3], the exposure (AUC) came to 58.8 ng·h/mL, the MRT came out at 1.7 h, the half-life is 1.65 h and the Vd is 5.77 L/kg. In addition, in series [3], the clearance turned out to be 56.7 mL/min/kg.

`Cc1cc(Cl)cc2sc(O[C@H]3CCN(C(=O)CCCS(=O)(=O)c4cccc(Br)c4)C[C@@H]3F)nc12` [VU6047609]: in series [1], the “Rat CLhep, % Hepatic blood flow” value is on record as 89% and the CLhep predicted at 1 μM is 62.4 mL/min/kg. For the same compound, in series [2], the “Mouse CLhep, % Hepatic blood flow” value is given as 97% and the CLhep predicted at 1 μM was 87.6 mL/min/kg. Further, in series [3], the exposure (AUC) came out at 45.2 ng·h/mL, the mean residence time MRT came to 2.36 h, the half-life is 2.91 h and the Vd worked out at 10.5 L/kg. Also, the clearance in series [3] came to 73.8 mL/min/kg.

(Values after publication PMC12441834, “Highly Potent and Subtype-Selective Sperm-Specific Potassium Channel SLO3 Inhibitors Display High Tissue Exposure in the Murine Female Reproductive Tract” (ACS Pharmacology & Translational Science, 2025).)
